Key:
human capsaicin receptor = biological target: T1, human capsaicin receptor (Homo sapiens, UniProt Q8NER1); test: Calcium mobilization assay, determination of antagonist activity (Example 6); assay type: cell-based; conditions: cells expressing human capsaicin receptor, capsaicin-induced fluorescence response; read-out: IC50
T1 construct: pBK-CMV expression construct encoding the full length human capsaicin receptor; expressed in transfected cells
Procedure: A cDNA encoding full length human capsaicin receptor (SEQ ID NO:1, 2 or 3 of U.S. Pat. No. 6,482,611) is subcloned in the plasmid pBK-CMV (Stratagene, La Jolla, Calif.) for recombinant expression in mammalian cells.
Human embryonic kidney (HEK293) cells are transfected with the pBK-CMV expression construct encoding the full length human capsaicin receptor using standard methods. The transfected cells are selected for two weeks in media containing G418 (400 μg/ml) to obtain a pool of stably transfected cells. Independent clones are isolated from this pool by limiting dilution to obtain clonal stable cell lines for use in subsequent experiments.
Cells transfected with expression plasmids (as described in Example 4) and thereby expressing human capsaicin receptor are seeded and grown to 70-90% confluency in FALCON black-walled, clear-bottomed 96-well plates (#3904, BECTON-DICKINSON, Franklin Lakes, N.J.). The culture medium is emptied from the 96 well plates and FLUO-3 AM calcium sensitive dye (Molecular Probes, Eugene, Oreg.) is added to each well (dye solution: 1 mg FLUO-3 AM, 440 μl DMSO and 440 μl 20% pluronic acid in DMSO diluted 1:250 in Krebs-Ringer HEPES (KRH) buffer (25 mM HEPES, 5 mM KCl, 0.96 mM NaH2PO4, 1 mM MgSO4, 2 mM CaCl2, 5 mM glucose, 1 mM probenecid, pH 7.4), 50 μl diluted solution per well). Plates are covered with aluminum foil and incubated at 37° C. for 1-2 hours in an environment containing 5% CO2. After the incubation, the dye is emptied from the plates, and the cells are washed once with KRH buffer, and resuspended in KRH buffer.
To measure the ability of a test compound to agonize or antagonize a calcium mobilization response in cells expressing capsaicin receptors to capsaicin or other vanilloid agonist, the EC50 of the agonist capsaicin is first determined. An additional 20 μl of KRH buffer and 1 μl DMSO is added to each well of cells, prepared as described above. 100 μl capsaicin in KRH buffer is automatically transferred by the FLIPR instrument to each well. Capsaicin-induced calcium mobilization is monitored using either FLUOROSKAN ASCENT (Labsystems; Franklin, Mass.) or FLIPR (fluorometric imaging plate reader system; Molecular Devices, Sunnyvale, Calif.) instruments. Data obtained between 30 and 60 seconds after agonist application are used to generate an 8-point concentration response curve, with final capsaicin concentrations of 1 nM to 3 μM. KALEIDAGRAPH software (Synergy Software, Reading, Pa.) is used to fit the data to the equation: y=a*(1/(1+(b/x)^c)) to determine the 50% excitatory concentration (EC50) for the response. In this equation, y is the maximum fluorescence signal, x is the concentration of the agonist or antagonist (in this case, capsaicin), a is the Emax, b corresponds to the EC50 value and c is the Hill coefficient. Determination of Agonist Activity
Test compounds are dissolved in DMSO, diluted in 20 μl KRH buffer so that the final concentration of test compounds in the assay well is between 1 μM and 5 μM, and added to cells prepared as described above. The 96 well plates containing prepared cells and test compounds are incubated in the dark, at room temperature for 0.5 to 6 hours. It is important that the incubation not continue beyond 6 hours. Just prior to determining the fluorescence response, 100 μl capsaicin in KRH buffer at twice the EC50 concentration determined as described above is automatically added by the FLIPR instrument to each well of the 96 well plate for a final sample volume of 200 μl and a final capsaicin concentration equal to the EC50. The final concentration of test compounds in the assay wells is between 1 μM and 5 μM. […] The concentration of antagonist required to provide a 50% decrease, relative to the response observed in the presence of capsaicin and without antagonist, is the IC50 for the antagonist, and is preferably below 1 micromolar, 100 nanomolar, 10 nanomolar or 1 nanomolar.

VR = VR (Homo sapiens, UniProt Q8NER1); conditions: typical value, background section; cited from earlier work
Chain of VR (Q8NER1 whole entry): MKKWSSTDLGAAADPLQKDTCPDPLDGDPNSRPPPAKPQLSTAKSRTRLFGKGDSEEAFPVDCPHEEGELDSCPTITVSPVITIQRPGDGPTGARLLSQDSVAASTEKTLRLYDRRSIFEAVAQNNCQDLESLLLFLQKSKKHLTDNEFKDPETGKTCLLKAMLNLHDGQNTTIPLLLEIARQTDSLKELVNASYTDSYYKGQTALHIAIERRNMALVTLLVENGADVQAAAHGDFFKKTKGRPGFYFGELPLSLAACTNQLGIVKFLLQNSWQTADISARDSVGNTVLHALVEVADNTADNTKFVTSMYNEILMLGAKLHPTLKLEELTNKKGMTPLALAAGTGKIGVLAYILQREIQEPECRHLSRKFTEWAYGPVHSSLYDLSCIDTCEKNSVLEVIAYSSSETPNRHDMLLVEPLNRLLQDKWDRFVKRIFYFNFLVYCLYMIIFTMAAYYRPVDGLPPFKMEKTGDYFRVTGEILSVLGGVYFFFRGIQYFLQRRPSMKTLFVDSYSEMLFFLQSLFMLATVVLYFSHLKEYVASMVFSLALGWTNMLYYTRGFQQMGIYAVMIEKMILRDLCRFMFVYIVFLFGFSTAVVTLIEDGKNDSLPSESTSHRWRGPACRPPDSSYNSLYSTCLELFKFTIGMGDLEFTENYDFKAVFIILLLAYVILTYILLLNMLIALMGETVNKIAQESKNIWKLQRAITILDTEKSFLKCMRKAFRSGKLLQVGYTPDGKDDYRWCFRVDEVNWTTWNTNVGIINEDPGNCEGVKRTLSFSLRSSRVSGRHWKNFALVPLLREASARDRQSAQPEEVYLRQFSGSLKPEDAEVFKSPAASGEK

T1 sequence (Q8NER1 whole entry): as above

Compound | IC50 (human capsaicin receptor) [nM] | Ki (VR) [µM]
CCn1cnc2c(=O)n(-c3ccc(C#N)cc3)c(CC(C)C(F)(F)F)nc21 (centres unmarked) [Compound 36, 4-[9-ethyl-6-oxo-2-(3,3,3-trifluoro-2-methylpropyl)-6,9-dihydro-1H-purin-1-yl]benzonitrile] | ≤ 100 | –
CC(Cc1nc2c(ncn2C)c(=O)n1-c1ccc(C#N)cc1)C(F)(F)F (centres unmarked) [Compound 37, 4-[9-methyl-6-oxo-2-(3,3,3-trifluoro-2-methylpropyl)-6,9-dihydro-1H-purin-1-yl]benzonitrile] | ≤ 100 | –
Cl.Cl.Cl.Cl.Cl.Cl.N.N.N.N.N.N.N.N.N.N.N.N.N.N.[O-2].[O-2].[Ru+3].[Ru+3].[Ru+4] [ruthenium red] | – | ≥ 140

Further lines, with some results ahead:

IC50 (human capsaicin receptor) [nM] | Compound | Ki (VR) [µM]
≤ 100 | CCn1cnc2c(=O)n(-c3ccc(C#N)cc3)c(CCC(C)C(F)(F)F)nc21 (centres unmarked) [Compound 34, 4-[9-ethyl-6-oxo-2-(4,4,4-trifluoro-3-methylbutyl)-6,9-dihydro-1H-purin-1-yl]benzonitrile] | –
≤ 100 | CC(Cc1nc2cccnc2c(=O)n1-c1ccc(Cl)cc1)CC(F)(F)F (centres unmarked) [Compound 35, 3-(4-chlorophenyl)-2-(4,4,4-trifluoro-2-methylbutyl)pyrido[3,2-d]pyrimidin-4(3H)-one] | –

Source: US20080090845A1, “Haloalkyl-substituted pyrimidinone derivatives” (Neurogen Corporation, priority 2006, published 2008)
